Source: patent US20230416239A1, “COMPOUNDS AND METHODS FOR TREATING A CYTOKINE-MEDIATED DISEASE” (CONSERVATOIRE NATIONAL DES ARTS ET MÉTIERS, priority 2020, published 2023)
pIC50: −log10 of the molar value.

Experiments:
IL-6 = IL-6 (Homo sapiens, UniProt P05231); test: Immunoassay binding test, IL-6 (gp130 receptor, IL-6Ra present); settings: IL-6Ra 200 ng/ml
Method: (§1) Microtiter plates (96 wells) are covered with 100 μl of receptor per well, and incubated overnight at 4° C. The following day, after 2 washes in PBS/Tween20, the plates are saturated with 150 μl of PBS/BSA 2% per well, for 2 h at 37° C. Synthetic compounds are diluted in series (final concentrations: 100 to 0.78 μM) then a fixed amount of cytokine in PBS/BSA 1% is added to the compounds, in a final volume of 120 μl per well. […] The cytokine is diluted in series (six concentrations) in a final volume of 120 μl per well. The cytokine is used in the absence of small molecule as well as the range of SPD304 as positive controls and the absence of cytokine and synthetic molecule as negative control. The different mixtures are incubated for 2 h at 37° C. 100 μl of each mixture are then transferred to the microtiter plate, respecting the plate plan previously defined and incubated overnight at 4° C. After three washes, 100 μl of biotinylated anti-cytokine secondary antibody are added to each well, then incubated for 2 h at 37° C. After three washes, 100 μl of Avidin-HRP (1/500th dilution) are added and incubated for 30 minutes at 37° C. […] The plates are then read with a spectrophotometer at 450 nm, measuring the optical density for each well.
(§2) This binding test is carried out with different cytokines: TNFa, IL-4, IL-6 and IL-13. For IL-6, the incubation of molecules with the cytokine also requires the presence of IL-6Ra at a final concentration of 200 ng/ml.
(§3) The final concentrations used for each of the cytokines are presented below: […]

IL-13 = IL-13 (Homo sapiens, UniProt P35225); test: Immunoassay binding test, IL-13; settings: for pIC50: IL-13 400 ng/ml, receptor 100 ng/ml, read-out: BINDING IL13 IC50
Method: as §1, with “The cytokine is used in the absence of small molecule as well as the range of SPD304 as positive controls and the absence of cytokine and synthetic molecule as negative control.” left out
as §2, §3

TNFa/TNFRI interaction = TNFa/TNFRI interaction (Homo sapiens, UniProt P01375); test: TNFa/TNFRI interaction displacement test; format: binding; settings: for Displacement (%): compounds at 50 μM, human TNFRI 100 ng/ml; for Displacement EC50 TNFa in presence of compound: Difference: Compound EC50 minus SPD304 EC50;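 for Displacement EC50 TNFa in presence of compound: Difference: SPD304 reference at 20 µM final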
Method: Microtiter plates (96 wells) are covered with 100 μl per well of human TNFRI, at a concentration of 100 ng/ml, then incubated overnight at 4° C. The following day, after two washes in PBS/Tween20, the plates are saturated with 150 μl of PBS/BSA 2% for 2 h at 37° C.
100 μl of each mixture are then transferred to the microtiter plate, respecting the established plate plan and incubated overnight at 4° C.
After three washes, 100 μl of biotinylated anti-cytokine secondary antibody are added to each well and incubated for 2 h at 37° C. After three washes, 100 Avl Avidin-HRP (dilution 1/500th) are added and incubated for 30 minutes at 37° C. […] The plates are then read with a spectrophotometer at 450 nm, measuring the optical density (OD) for each well.

IL-4 = molecular target: T1, IL-4 (Homo sapiens, UniProt P05112); test: Immunoassay binding test, IL-4; settings: for pIC50: IL-4 400 ng/ml, receptor 100 ng/ml, read-out: BINDING IL4 IC50
T1 sequence (P05112 25-153): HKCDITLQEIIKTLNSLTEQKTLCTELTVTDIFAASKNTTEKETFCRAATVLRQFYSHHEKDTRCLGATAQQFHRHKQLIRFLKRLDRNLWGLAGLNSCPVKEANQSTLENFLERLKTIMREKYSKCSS
Method: as §1, §2, §3

TNFα = TNFα (Homo sapiens, UniProt P01375); test: Immunoassay binding test, TNFa; settings: compounds 100 to 0.78 μM; TNFα 10 ng/ml, receptor 100 ng/ml; read-out: BINDING TNF IC50
Method: as §1, with “C.” for “C. Synthetic compounds are diluted in series (final concentrations: 100 to 0.78 μM) then a fixed amount of cytokine in PBS/BSA 1% is added to the compounds, in a final volume of 120 μl per well.”, “The cytokine is used in the absence of small molecule as well as the range of SPD304 as positive controls and the absence of cytokine and synthetic molecule as negative control.” left out
as §2, §3

Chain of IL-6 (P05231 30-212, species assumed): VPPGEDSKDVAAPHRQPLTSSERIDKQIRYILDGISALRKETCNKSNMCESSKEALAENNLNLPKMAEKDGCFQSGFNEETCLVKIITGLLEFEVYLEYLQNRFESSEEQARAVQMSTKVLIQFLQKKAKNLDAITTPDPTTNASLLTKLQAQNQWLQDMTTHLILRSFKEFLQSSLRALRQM
Chain of TNFα (P01375 77-233 limits assumed, species assumed): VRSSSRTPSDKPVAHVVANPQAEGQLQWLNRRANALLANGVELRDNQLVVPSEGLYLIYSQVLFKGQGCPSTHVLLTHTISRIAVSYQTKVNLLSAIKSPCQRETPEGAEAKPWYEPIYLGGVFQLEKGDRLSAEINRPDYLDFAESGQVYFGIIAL
Chain of TNFa/TNFRI interaction (P01375 77-233 limits assumed): as the sequence (P01375 77-233 limits assumed, species assumed) above
Chain of IL-13 (P35225 25-146, species assumed): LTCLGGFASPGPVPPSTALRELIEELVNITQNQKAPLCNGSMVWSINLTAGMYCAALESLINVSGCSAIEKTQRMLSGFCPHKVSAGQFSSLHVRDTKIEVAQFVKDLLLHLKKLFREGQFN

| SMILES | BINDING IL6 % Neutra at 100 μM (IL-6) [%] | BINDING IL13 % Neutra at 100 μM (IL-13) [%] | pIC50 (IL-13) | Displacement (%) (TNFa/TNFRI interaction) | BINDING IL4 % Neutra at 100 μM (IL-4) [%] | pIC50 (IL-4) | pIC50 (TNFα) | Displacement EC50 TNFa in presence of compound: Difference (TNFa/TNFRI interaction) [ng/mL] |
| --- | --- | --- | --- | --- | --- | --- | --- | --- |
| CN(CCOCCN(Cc1cccnc1F)Cc1cn(S(=O)(=O)c2ccccc2)c2ccccc12)C1CCCC1 [Compound 104] | 0 | 79.8 | < 4.30 | 123 | 88.2 | 4.88 | 5.04 |  |
| CCCCN(CCOCCN(Cc1cccnc1F)Cc1cn(S(=O)(=O)c2ccccc2)c2ccccc12)C1CCCC1 [Compound 109, N-butyl-N-(2-(2-(((2-fluoropyridin-3-yl)methyl)((1-(phenylsulfonyl)-1H-indol-3-yl)methyl)amino)ethoxy)ethyl)cyclopentanamine] | 1 | 7.8 |  | 207 | 86.3 | 5.02 | 4.94 |  |
| CN(CCCCN(Cc1cccnc1)Cc1cn(S(=O)(=O)c2ccccc2)c2ccccc12)C1CCCCC1 [Compound 17] | 20.7 | 87.7 | < 4.30 | 133 | 97.9 | 5.30 | 5.96 |  |
| FC(F)(F)c1cccc(-n2cc(CN(CCCCCNC3CCCCC3)Cc3ccncc3)c3ccccc32)c1 [Compound 37] | 20.4 | 96.4 | 5.13 | 123 | 96.3 | 5.40 | 4.72 |  |
| O=S(=O)(c1ccccc1)n1cc(CN(Cc2ccnc(F)c2)CC2CCCN(C3CCCCC3)C2)c2ccccc21 (stereo not drawn) [Compound 19] | 12.6 | 98.1 | < 4.30 | 169 | 99 | 5.20 | 4.96 | 9.9 |
| Fc1ncccc1CN(Cc1cn(-c2cccc(C(F)(F)F)c2)c2ccccc12)CC1CCCN(C2CCCCC2)C1 (stereo not drawn) [Compound 42] | 0 | 86.3 | 4.67 | 177 | 94.4 | 5.19 | 4.81 | 8.3 |
| O=S(=O)(c1ccccc1)n1cc(CN(CCCCNC2CCCCC2)Cc2cccc(F)n2)c2ccccc21 [Compound 45, N1-cyclohexyl-N4-((6-fluoropyridin-2-yl)methyl)-N4-((1-(phenylsulfonyl)-1H-indol-3-yl)methyl)butane-1,4-diamine] | 0 | 86.5 | < 4.30 | 114 | 90.5 | 5.12 | 4.98 |  |
| CN(CCCN(Cc1ccncc1)Cc1cn(S(=O)(=O)c2ccccc2)c2ccccc12)C1CCCCC1 [Compound 11] | −3 | 90.2 | < 4.30 | 215 | 97.6 | 5.21 | 5.36 |  |
| CCN(CCOCCN(Cc1cccnc1F)Cc1cn(S(=O)(=O)c2ccccc2)c2ccccc12)C1CCCC1 [Compound 107, N-ethyl-N-(2-(2-(((2-fluoropyridin-3-yl)methyl)((1-(phenylsulfonyl)-1H-indol-3-yl)methyl)amino)ethoxy)ethyl)cyclopentanamine] | 0 | 66.1 | 4.59 | 169 | 74.9 | 5.29 | 5.14 |  |
| NCCN(Cc1cccnc1)Cc1cn(S(=O)(=O)c2ccccc2)c2ccccc12 [Compound 59] | 0 | 59.3 | < 4.30 | 78 | 89.4 | 4.36 | 4.45 |  |
| O=S(=O)(c1ccccc1)n1cc(CN(CCCNC2CCCCC2)Cc2ccncc2)c2ccccc21 [Compound 8] | 3.3 | 81.7 | < 4.30 | 168 | 98.1 | 5.28 | 4.91 | 10.9 |
| O=S(=O)(c1ccccc1)n1cc(CN(Cc2cccc(F)n2)CC2CCCN(C3CCCCC3)C2)c2ccccc21 (stereo not drawn) [Compound 41] | 0 | 87.6 | 5.04 | 152 | 94.7 | 5.32 | 5.15 | 4.7 |
